Data from patent US20250059220A1, “SUBSTITUTED BENZOTHIOPHENE DERIVATIVES AND METHODS OF USE THEREOF” (Merck Sharp & Dohme LLC, priority 2021, published 2025).

Assays:
human PTPN2 (1-387) = human PTPN2 (1-387) (Homo sapiens (Human), UniProt P17706); experiment: Human PTPN2 Biochemical Assay; details: DiFMUP substrate
Experimental: Human PTPN2 Biochemical Assay
Test compounds were dissolved in DMSO, and 10-point serial 3-fold dilution series in DMSO were prepared in Echo Qualified 384-well Polypropylene Microplates (Labcyte, San Jose, CA) (top concentration 50 µM). Assay plates (384-well low volume black plates; Corning #3820, Corning, NY) were prepared by dispensing 50 nL of test compound, and DMSO (for high and low controls) by ECHO acoustic dispenser (Labcyte, San Jose CA). This was followed by addition of 5 μL of 0.2 nM human PTPN2 (1-387) solution (prepared in the assay buffer, 50 mM Tris pH 7.4, 150 mM NaCl, 0.01% Tween20, 0.5 mM dithiothreitol) to all wells except the low control. 5 μl of assay buffer was added into the low control, then the plate was incubated for 30 minutes at room temperature. Subsequently, 5 μl of 100 µM DiFMUP (6,8-difluoro-4-methylumbelliferyl phosphate) solution (prepared in assay buffer from 10 mM stock in DMSO) was added to the assay plate and incubated for 1 hour at room temperature. For detection, assay plates were read on SpectraMax Microplate Reader (Molecular Devices), with Excitation wavelength=360 nm and Emission wavelength=460 nm. Test compound effects were normalized to the window defined by the controls, DMSO/buffer, and DMSO/50 pM human PTPN2. Calculated % effects were fit using a 4-parameter algorithm, and EC50 was reported.

human PTPN1 (1-435) = human PTPN1 (1-435) (Homo sapiens (Human), UniProt P18031); experiment: Human PTPN1 Biochemical Assay; details: DiFMUP substrate, read-out: PTP1B IC50
Experimental: Human PTPN1 Biochemical Assay
Test compounds were dissolved in DMSO, and 10-point serial 3-fold dilution series in DMSO were prepared in Echo Qualified 384-well Polypropylene Microplates (Labcyte, San Jose, CA) (top concentration 50 µM). […] 5 μl of assay buffer was added into the low control. The plate was incubated for 30 minutes at room temperature. Subsequently, 5 μl of 100 µM DiFMUP (6,8-difluoro-4-methylumbelliferyl phosphate) solution (prepared in assay buffer from 10 mM stock in DMSO) was added to the assay plate and incubated for 1 hour at room temperature. For detection, assay plates were read on SpectraMax Microplate Reader (Molecular Devices), with Excitation wavelength=360 nm and Emission wavelength=460 nm. […] Calculated % effects were fit using a 4-parameter algorithm, and EC50 was reported.

Chain of human PTPN2 (1-387) (P17706 other isoform, or with tags, fused parts or gaps): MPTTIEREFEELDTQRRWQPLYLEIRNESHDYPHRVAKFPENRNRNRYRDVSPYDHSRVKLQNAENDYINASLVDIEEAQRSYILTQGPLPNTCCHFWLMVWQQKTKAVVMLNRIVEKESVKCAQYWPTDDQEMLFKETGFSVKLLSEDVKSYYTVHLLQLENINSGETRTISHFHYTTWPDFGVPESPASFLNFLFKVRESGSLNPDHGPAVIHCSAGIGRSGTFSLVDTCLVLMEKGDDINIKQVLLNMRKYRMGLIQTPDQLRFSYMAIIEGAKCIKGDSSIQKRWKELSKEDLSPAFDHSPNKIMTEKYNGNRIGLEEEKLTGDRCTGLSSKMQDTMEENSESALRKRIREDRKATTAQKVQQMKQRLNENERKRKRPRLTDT
Chain of human PTPN1 (1-435) (P18031 whole entry): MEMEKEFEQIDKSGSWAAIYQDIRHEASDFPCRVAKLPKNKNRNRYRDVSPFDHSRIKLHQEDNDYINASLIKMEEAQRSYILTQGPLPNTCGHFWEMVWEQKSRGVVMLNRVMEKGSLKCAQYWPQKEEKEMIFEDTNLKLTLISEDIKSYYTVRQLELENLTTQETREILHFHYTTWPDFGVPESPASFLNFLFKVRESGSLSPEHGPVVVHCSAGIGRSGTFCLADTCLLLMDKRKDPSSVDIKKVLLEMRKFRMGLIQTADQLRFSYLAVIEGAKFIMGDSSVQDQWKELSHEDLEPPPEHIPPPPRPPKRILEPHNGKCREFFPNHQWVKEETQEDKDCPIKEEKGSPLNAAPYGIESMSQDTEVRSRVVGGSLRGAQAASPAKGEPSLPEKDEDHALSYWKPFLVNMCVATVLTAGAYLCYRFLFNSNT

IC50 (human PTPN2 (1-387)) [nM] | IC50 (human PTPN1 (1-435)) [nM] | Compound
1060 | 986 | O=C(N[C@H]1CCN(C(=O)C2CC2)C1)c1ccc2sc(C(F)(F)P(=O)(O)O)c(Br)c2c1 [Compound 116]
6820 | 5680 | O=C(N[C@H]1CC[C@H](C(F)(F)F)CC1)c1ccc2sc(C(F)(F)P(=O)(O)O)c(Br)c2c1 [Compound 52]
2360 | 1780 | O=C(Nc1cccc(C(=O)N2CCCC2)c1)c1ccc2sc(C(F)(F)P(=O)(O)O)c(Br)c2c1 [Compound 101]
24.1 | 25.1 | CNC(=O)c1cc(OCC2CC2(F)F)c2sc(C(F)(F)P(=O)(O)O)c(Br)c2c1 (centres unmarked) [Compound 321]
119 | 99.3 | Cc1c(C(F)(F)P(=O)(O)O)sc2c(OCCCC(F)(F)F)cc(C(N)=O)cc12 [Compound 431]
3520 | 2750 | O=C(NCCc1cnc2n(c1=O)CCCC2)c1ccc2sc(C(F)(F)P(=O)(O)O)c(Br)c2c1 [Compound 72]
4540 | 4670 | CCN1C(=O)CCC12C[C@H]2CCNC(=O)c1ccc2sc(C(F)(F)P(=O)(O)O)c(Br)c2c1 (some centres unmarked) [Compound 85]
2130 | 2200 | O=C(Nc1ccccc1)c1ccc2sc(C(F)(F)P(=O)(O)O)c(C(F)(F)F)c2c1 [Compound 9, (difluoro(5-(phenylcarbamoyl)-3-(trifluoromethyl)benzo[b]thiophen-2-yl)methyl)phosphonic acid]
4110 | 3240 | O=C(NCCC1CCCCC1)c1ccc2sc(C(F)(F)P(=O)(O)O)c(Br)c2c1 [Compound 53]
4890 | 3180 | O=C(NC1CCN(Cc2ccccc2)C1)c1ccc2sc(C(F)(F)P(=O)(O)O)c(Br)c2c1 (centres unmarked) [Compound 67]
20 | 15.7 | O=C(NCc1cccnn1)c1cc(OCCCc2cncs2)c2sc(C(F)(F)P(=O)(O)O)c(Br)c2c1 [Compound 268]
26.4 | 37.1 | NC(=O)c1cc(OCCCc2cncs2)c2sc(C(F)(F)P(=O)(O)O)c(Br)c2c1 [Compound 269]
16.1 | 2.5 | CNC(=O)c1cc(OCCCC(C)(F)F)c2sc(C(F)(F)P(=O)(O)O)c(Br)c2c1 [Compound 326]
9280 | 7250 | O=C(Nc1cccnc1Oc1ccccc1)c1ccc2sc(C(F)(F)P(=O)(O)O)c(Br)c2c1 [Compound 23]
34.2 | 26.1 | CC1CCS(=O)(=O)C1CCOc1cc(C(N)=O)cc2c(Br)c(C(F)(F)P(=O)(O)O)sc12 (single isomer, unassigned) [Compound 394]
4260 | 3980 | O=C(NC1(c2cncc(C(F)(F)F)c2)CC1)c1ccc2sc(C(F)(F)P(=O)(O)O)c(Br)c2c1 [Compound 111]
1880 | 1310 | O=C(Nc1ccccc1F)c1ccc2sc(C(F)(F)P(=O)(O)O)c(Br)c2c1 [Compound 32]
13.7 | 132 | C=C(C)C#Cc1cc(C(N)=O)cc2c(Br)c(C(F)(F)P(=O)(O)O)sc12 [Compound 210]
16.4 | 17.2 | CNC(=O)c1cc(OCCCC(F)(F)F)c2sc(C(F)(F)P(=O)(O)O)c(Br)c2c1 [Compound 203]

IC50 (human PTPN2 (1-387)) [nM] | IC50 (human PTPN1 (1-435)) [nM] | Compound
77.9 | 45 | NC(=O)c1cc(OCCCCC(F)(F)C(F)(F)F)c2sc(C(F)(F)P(=O)(O)O)c(Br)c2c1 [Compound 285]
6700 | 5140 | O=C(NC1CCCOC1)c1ccc2sc(C(F)(F)P(=O)(O)O)c(Br)c2c1 (centres unmarked) [Compound 127]
23.8 | 36.5 | NC(=O)c1cc(OCc2ccc(Cl)c(Cl)c2)c2sc(C(F)(F)P(=O)(O)O)c(Br)c2c1 [Compound 347]
1730 | 1030 | O=P(O)(O)C(F)(F)c1sc2ccc(-c3nc4ccccc4[nH]3)cc2c1Br [Compound 230, ((5-(1H-benzo[d]imidazol-2-yl)-3-bromobenzo[b]thiophen-2-yl)difluoromethyl)phosphonic acid]
38.9 | 38 | NC(=O)c1cc(OCC2CC(C3CC3)C2)c2sc(C(F)(F)P(=O)(O)O)c(Br)c2c1 (centres unmarked) [Compound 295]
3160 | 1940 | CC(C)(O)c1ccc(CNC(=O)c2ccc3sc(C(F)(F)P(=O)(O)O)c(Br)c3c2)cn1 [Compound 92]
22.5 | 21.1 | NC(=O)c1cc(OCCC2CCNS2(=O)=O)c2sc(C(F)(F)P(=O)(O)O)c(Br)c2c1 (single isomer, unassigned) [Compound 461, (R or S)-((3-bromo-5-carbamoyl-7-(2-(1,1-dioxidoisothiazolidin-5-yl)ethoxy)benzo[b]thiophen-2-yl)difluoromethyl)phosphonic acid]
2.5 | 2.5 | CS(=O)(=O)CCCOc1cc(-c2cc(=O)cc[nH]2)cc2c(Br)c(C(F)(F)P(=O)(O)O)sc12 [Compound 460, ((3-bromo-7-(3-(methylsulfonyl)propoxy)-5-(4-oxo-1,4-dihydropyridin-2-yl)benzo[b]thiophen-2-yl)difluoromethyl)phosphonic acid]
7.6 | 8.6 | CCNC(=O)c1cc(OCCCS(C)(=O)=O)c2sc(C(F)(F)P(=O)(O)O)c(Br)c2c1 [Compound 305]
35.2 | 109 | CC(C)(C)c1ccc(COc2cc(C(N)=O)cc3c(Br)c(C(F)(F)P(=O)(O)O)sc23)cc1 [Compound 359]
50.5 | 61.8 | N#CCCCCOc1cc(C(N)=O)cc2c(Br)c(C(F)(F)P(=O)(O)O)sc12 [Compound 241]
16.6 | 20 | NC(=O)c1cc(OCCCS(N)(=O)=O)c2sc(C(F)(F)P(=O)(O)O)c(Br)c2c1 [Compound 235, ((3-bromo-5-carbamoyl-7-(3-sulfamoylpropoxy)benzo[b]thiophen-2-yl)difluoromethyl)phosphonic acid]
14.7 | 18.2 | NC(=O)c1cc(OCCCS(N)(=O)=O)c2sc(C(F)(F)P(=O)(O)O)c(C(F)(F)F)c2c1 [Compound 446]
124 | 166 | NC(=O)c1cc(OCc2cccc3ccccc23)c2sc(C(F)(F)P(=O)(O)O)c(Br)c2c1 [Compound 385]
266 | 233 | CC(F)(F)CCOc1cc(C(N)=O)cc2c(Br)c(C(F)(F)P(=O)(O)O)sc12 [Compound 327]
6140 | 4340 | O=C(NCCn1cnnc1)c1ccc2sc(C(F)(F)P(=O)(O)O)c(Br)c2c1 [Compound 143]
112 | 152 | COc1cc(COc2cc(C(N)=O)cc3c(Br)c(C(F)(F)P(=O)(O)O)sc23)ccc1C#N [Compound 363]
4250 | 3760 | O=C1CCC(CNC(=O)c2ccc3sc(C(F)(F)P(=O)(O)O)c(Br)c3c2)N1 (centres unmarked) [Compound 136]

Compound | IC50 (human PTPN2 (1-387)) [nM] | IC50 (human PTPN1 (1-435)) [nM]
C[C@H](NC(=O)c1ccc2sc(C(F)(F)P(=O)(O)O)c(Br)c2c1)c1cccnc1 [Compound 200] | 1470 | 976
CCc1nc(CNC(=O)c2ccc3sc(C(F)(F)P(=O)(O)O)c(Br)c3c2)no1 [Compound 195] | 5540 | 2740
Nc1cc(OCCCC(F)(F)F)c2sc(C(F)(F)P(=O)(O)O)c(Br)c2c1 [Compound 259, ((5-amino-3-bromo-7-(4,4,4-trifluorobutoxy)benzo[b]thiophen-2-yl)difluoromethyl)phosphonic acid] | 338 | 180
